Data: ChEMBL document CHEMBL1926684, “Constituents of Trigonostemon heterophyllus” (J Nat Prod, 2011)

Tests used:
[1] = system: A549; test: Cytotoxicity against human A549 cells by SRB assay; assay type: functional, cell-based
[2] = system: HL-60; test: Cytotoxicity against human HL60 cells by MTT assay; assay type: functional, cell-based

SMILES | IC50 [1] [µM] | IC50 [2] [µM]
CC(C)=CC(=O)C(O)/C(C)=C/CC[C@](C)(O)C1CCC(C)=CC1=O (some centres not stated) | > 10 | > 10
C=C(C)[C@@]1(OC(C)=O)[C@H](OC(C)=O)[C@@H]2[C@H](OC(C)=O)[C@@]3(C)O[C@@]4([C@@H]3OC(C)=O)[C@@H](OC(=O)c3ccccc3)[C@](C)(OC(C)=O)C[C@H]4[C@@]2(O)[C@H](C)[C@@H]1OC(=O)c1ccccc1 (relative stereo) | > 10 | > 10
C=C(C)[C@@]12OC3(c4ccccc4)O[C@@H]1[C@@H]1[C@H](OC(C)=O)[C@@](C)(O)[C@@H](OC(=O)c4ccccc4)[C@@]4(O)[C@@H](C[C@H](C)[C@@H]4OC(C)=O)[C@@]1(O3)[C@H](C)[C@@H]2OC(C)=O (relative stereo) | > 10 | > 10
C=C(C)[C@@]12OC3(C)O[C@@H]1[C@@H]1[C@H](O)[C@@](C)(O)[C@@H](O)[C@@]4(O)[C@@H](C[C@H](C)[C@@H]4OC(C)=O)[C@@]1(O3)[C@H](C)[C@@H]2OC(=O)CCc1ccccc1 (relative stereo) | > 10 | > 10
C=C(C)[C@@]12OC3(c4ccccc4)O[C@@H]1[C@@H]1[C@H]4O[C@@]4(C)[C@@H](O)[C@]4(O)C(=O)[C@@H](C)C[C@H]4[C@@]1(O3)[C@H](C)[C@@H]2OC(=O)c1ccccc1 (relative stereo) | 10 | 1.8
C=C(C)[C@@]1(OC(C)=O)[C@H](OC(C)=O)[C@@H]2[C@H](OC(C)=O)[C@@]3(C)O[C@@]4([C@@H]3OC(C)=O)[C@@H](OC(=O)c3ccccc3)[C@@H](C)C[C@H]4[C@@]2(O)[C@H](C)[C@@H]1OC(=O)c1ccccc1 [TRIGOHETERIN B] | > 10 | > 10
